Data set [1] in a line: Freshly isolated potato intercellular wash fluid (pIWF). To be noted: Russet Burbank potato, up to 5 minutes.

Experimental findings from US7332596B1 (priority 1999, dated 2008) are described below.

Where no end group is shown, it is not given here.

One may read the IC50 as the point on the concentration scale where inhibition reaches its midpoint. A low value points to inhibition by little substance. For `CSCC[C@H](N)C(=O)N[C@@H](CCCNC(=N)N)C(=O)N[C@@H](C)C(=O)N[C@@H](CCCCN)C(=O)N[C@@H](Cc1c[nH]c2ccccc12)C(=O)N[C@@H](CCCNC(=N)N)C(=O)N[C@@H](CCCCN)C(=O)N[C@@H](CCCCN)C(=O)N[C@@H](CCCNC(=N)N)C(=O)N[C@H](C(=O)N[C@@H](CCCNC(=N)N)C(=O)N[C@@H](CCCNC(=N)N)C(=O)N[C@@H](CC(C)C)C(=O)N[C@@H](CCCCN)C(=O)N[C@@H](CCCNC(=N)N)C(=O)N[C@@H](CCCCN)C(=O)N[C@@H](CCCNC(=N)N)C(=O)N[C@@H](CCCNC(=N)N)C(=O)N[C@@H](CCCCN)C(=O)N[C@H](C(=O)N[C@@H](CCCNC(=N)N)C(=O)N[C@@H](C)C(=O)N[C@@H](CCCNC(=N)N)C(=O)N[C@@H](CO)C(=O)N[C@@H](CCCCN)C(=O)O)C(C)C)[C@@H](C)O` [YL41], the IC50 with Phytophthora infestans is 4500 nM; in the data set on Fusarium culmorum, 1200 nM. As to “MAVPKKRTSISKKRIRKKIWKRKGYWTSLKAFSLGKSLSTGNSKSFFVQQNK [BL32]”, the IC50 was 6600 nM in the data set on Phytophthora infestans and 1600 nM in the data set with Fusarium culmorum. The like results for “MKIRASIRRISGKSRPIRRRKRVMIISSNPRHKQKQG [BL36]” were, in that order, 3400 nM and 2300 nM.

Regarding “MNSHRLPGKGRRMGPIMGHTMHYRRMIITLQSSYSIPPLRKKRT [SL23]”, the IC50 was determined as 7700 nM with Phytophthora infestans and 2500 nM in the data set with Fusarium culmorum.

Consider “VKVGLATKAERASRQQRKQRKNRQKTLMGTAKVKGAKAKK”, for which, in data set [1], the cleaved bond result is “A-T and L-M and M-G and A-K”.

On to “VKVGLATKAERASRQQRKQRKNRQKTLMGTAQVKGAKAKK”, for which the cleaved bond result in data set [1] is “A-T and L-M and M-G and A-Q”. Same read-out and setting: next, “VKVGLATKAERASRQQRKQRKNRQKTLRGTAKVKGAKAKK”: “A-T and L-R and R-G and A-K”. As to “VKVGLATKAERASRQQRKQRKNRQKTLRGTAKVKGAKAKK [Synthetic FCWP1]”, in the data set on Phytophthora infestans, the “IC50 P. infestans High salt” value worked out at 20 µg/mL and the “IC50 P. infestans Low salt” value was 10 µg/mL. In the data set on Fusarium culmorum, the “IC50 F. culmorum High salt” value is 85 µg/mL and the “IC50 F. culmorum Low salt” value came to 6 µg/mL. Besides, in the data set on S. nodorum, the “IC50 S. nodorum High salt” value was more than 170 µg/mL and the “IC50 S. nodorum Low salt” value came to 22 µg/mL. Take “VKVGLATKAERASRQQRKQRKNRQKTLRGTAQVKGAKAKK”: the cleaved bond entry in data set [1] was “A-T and L-R and R-G and A-Q”. Still for that read-out and setting: in the case of “VKVGLATKAERASRQQRKQRKNRQKTLRGTRKVKGAKAKK” it was “A-T and L-R and R-G and R-K”; in that of “VKVGLATKAERASRQQRKQRKNRQKTRRGTAKVKGAKAKK”, “R-R and G-T and A-K and A-T”; in that of “VKVGLATKAERASRQQRKQRKNRQKTRRGTRKVKGAKAKK”, “A-T and T-R and G-T and R-K”.
